Values joined by “and” are separate entries in the source; they are usually repeats but may differ in a detail not shown here. Equal entries are not always repeated.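 Growth conditions: 96-well plates. Treatment: test compound, 48 hours, 5 concentrations. Analysis: linear interpolation between bracketing concentrations; unreached endpoints set to highest concentration. Here, GI50 denotes the concentration required for 50% inhibition of growth. The concentration for full growth arrest is given as TGI.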

The subject of one experiment is A498 renal. As to the kind of experiment: inhibition of tumour cell growth, NCI panel, 48 h.
In the case of `COc1ccc(F)c(F)c1C(=O)c1cnc(NC2CCN(S(C)(=O)=O)CC2)nc1N`, the GI50 is 0.445 µM and the TGI came out at 2.08 µM.

For `CC1(C)CC(=O)C(CC2C(=O)c3ccccc3C2=O)C(=O)C1`, the TGI is more than 100 µM.

Turning to `Nc1cc(-c2ccc(Cl)cc2)nn1-c1nnc(/C=C/c2ccco2)c(=O)[nH]1`, the GI50 is 1.78 µM and the TGI came out at 6.9 µM.

`Cc1c(C)c(CC(=O)N2CC2)c(C)c(C)c1CC(=O)N1CC1` yielded a TGI of 32.1 µM.

Compound `Cc1ccc(C)c(N2C(=O)C(=O)C(c3nc4ccccc4s3)C(=Nc3cccc4c(=O)[nH][nH]c(=O)c34)C2=O)c1` (stereo not drawn) registered a TGI of more than 100 µM.

`CCCCCCCCCCCCCCCCCCOCC(COCCOCC[N+]1(CCCCCC(=O)[O-])CCCC1)Oc1ncccn1` (stereo not drawn) gave a TGI of 9.55 µM.

For `CCOc1ccc(Nc2c3ccccc3nc3ccccc23)cc1`, the GI50 was 0.307 µM and 0.332 µM; the TGI was 6.81 µM and 3.02 µM.

As for `CC(C)(C)NCC(COc1ccc([N+](=O)[O-])cc1)OP(c1ccccc1)c1ccccc1` (stereo not drawn), the TGI was more than 100 µM.

In the case of `CCNCCNc1cc(-c2ccc(C#N)cc2)c(C#N)c2nc3ccccc3n12`, the GI50 is 3.73 µM and the TGI was found to be 11.9 µM.

As to `Cc1cccc(C)c1N1C(=O)C(=O)C(c2nc3ccccc3s2)C(=Nc2cccc3c(=O)[nH][nH]c(=O)c23)C1=O` (stereo not drawn), the TGI is more than 100 µM.

In the case of `[2H]c1nc(=Nc2cc(NC(=O)C=C)c(N(C)CCN(C)C)cc2OC)[nH]c(-c2cn(C([2H])([2H])[2H])c3ccccc23)c1[2H]`, the GI50 was 1.21 µM and the TGI came out at 4.56 µM.

Consider `COc1cc2nc(-c3ccc(C(F)(F)F)cc3)cc(OCCCN3CCCC3)c2cc1OC`, for which the GI50 is 1.07 µM and the TGI amounted to 4.31 µM.

Regarding `COc1ccc(C(=O)c2nc3ccccc3n2CC(=O)c2ccc(Cl)cc2)cc1`, the GI50 is 4.07 µM and the TGI was 39.4 µM.

`COc1cc(C2c3cc4c(cc3[C@@H](Nc3ccc5c(c3)OCCO5)C3COC(=O)[C@H]23)OCO4)cc(OC)c1O` (stereo partly drawn) gave a TGI of 1.42 µM.

As to `Cn1c(=O)nc2n(-c3ccc(Cl)c(C(F)(F)F)c3)c3ccccc3nc-2c1=O`, the TGI is more than 100 µM.

Take `OCc1ccc(N2CCOCC2)cc1Cl`: the GI50 is 0.224 µM and the TGI is 0.926 µM.

In the case of `Cc1nc(-c2cccnc2)sc1C(=O)/C=C/c1cccc([N+](=O)[O-])c1`, the TGI is more than 100 µM.

In another experiment the test system is COLO 205 colon. The experiment in a line: inhibition of tumour cell growth, NCI panel, 48 h.
Consider `COc1ccc(F)c(F)c1C(=O)c1cnc(NC2CCN(S(C)(=O)=O)CC2)nc1N`, for which the GI50 was 0.253 µM and 0.15 µM; the TGI is 1.69 µM and 1.48 µM.

The compound `CC1(C)CC(=O)C(CC2C(=O)c3ccccc3C2=O)C(=O)C1` yielded a TGI of more than 100 µM.

On to `Nc1cc(-c2ccc(Cl)cc2)nn1-c1nnc(/C=C/c2ccco2)c(=O)[nH]1`, for which the GI50 is 3.64 µM and the TGI was more than 42.9 µM.

In the case of `Cc1c(C)c(CC(=O)N2CC2)c(C)c(C)c1CC(=O)N1CC1`, the TGI came to 29.5 µM.

`Cc1ccc(C)c(N2C(=O)C(=O)C(c3nc4ccccc4s3)C(=Nc3cccc4c(=O)[nH][nH]c(=O)c34)C2=O)c1` (stereo not drawn) came in with a TGI of more than 100 µM.

In turn, `CCCCCCCCCCCCCCCCCCOCC(COCCOCC[N+]1(CCCCCC(=O)[O-])CCCC1)Oc1ncccn1` (stereo not drawn) returned a TGI of 3.77 µM.

Regarding `CCOc1ccc(Nc2c3ccccc3nc3ccccc23)cc1`, the GI50 is 0.313 µM and 0.307 µM; the TGI was 1.39 µM and 1.33 µM.

`CC(C)(C)NCC(COc1ccc([N+](=O)[O-])cc1)OP(c1ccccc1)c1ccccc1` (stereo not drawn) returned a TGI of more than 100 µM.

Consider `CCNCCNc1cc(-c2ccc(C#N)cc2)c(C#N)c2nc3ccccc3n12`, for which the GI50 is 1.88 µM and the TGI came out at 4.16 µM.

In turn, `Cc1cccc(C)c1N1C(=O)C(=O)C(c2nc3ccccc3s2)C(=Nc2cccc3c(=O)[nH][nH]c(=O)c23)C1=O` (stereo not drawn) displayed a TGI of more than 100 µM.

Regarding `[2H]c1nc(=Nc2cc(NC(=O)C=C)c(N(C)CCN(C)C)cc2OC)[nH]c(-c2cn(C([2H])([2H])[2H])c3ccccc23)c1[2H]`, the GI50 was 1.62 µM and the TGI was 3.06 µM.

For `COc1cc2nc(-c3ccc(C(F)(F)F)cc3)cc(OCCCN3CCCC3)c2cc1OC`, the GI50 is 0.398 µM and the TGI came to 4.54 µM.

Take `COc1ccc(C(=O)c2nc3ccccc3n2CC(=O)c2ccc(Cl)cc2)cc1`: the GI50 is 11.3 µM and the TGI is more than 83.7 µM.

Compound `COc1cc(C2c3cc4c(cc3[C@@H](Nc3ccc5c(c3)OCCO5)C3COC(=O)[C@H]23)OCO4)cc(OC)c1O` (stereo partly drawn) gave a TGI of 4.43 µM.

In turn, `Cn1c(=O)nc2n(-c3ccc(Cl)c(C(F)(F)F)c3)c3ccccc3nc-2c1=O` gave a TGI of 49.9 µM.

Regarding `OCc1ccc(N2CCOCC2)cc1Cl`, the GI50 was 25 µM and the TGI is more than 68.1 µM.

`Cc1nc(-c2cccnc2)sc1C(=O)/C=C/c1cccc([N+](=O)[O-])c1` showed a TGI of more than 100 µM.

The subject of another experiment is HCC-2998 colon. As to the kind of experiment: inhibition of tumour cell growth, NCI panel, 48 h.
Turning to `COc1ccc(F)c(F)c1C(=O)c1cnc(NC2CCN(S(C)(=O)=O)CC2)nc1N`, the GI50 is 0.961 µM and 0.987 µM; the TGI was > 26.8 µM and 5.65 µM.

Compound `CC1(C)CC(=O)C(CC2C(=O)c3ccccc3C2=O)C(=O)C1` showed a TGI of more than 100 µM.

In the case of `Nc1cc(-c2ccc(Cl)cc2)nn1-c1nnc(/C=C/c2ccco2)c(=O)[nH]1`, the GI50 was 6.6 µM and the TGI is more than 84.5 µM.

Take `Cc1c(C)c(CC(=O)N2CC2)c(C)c(C)c1CC(=O)N1CC1`: the TGI stood at 25.2 µM.

On to `Cc1ccc(C)c(N2C(=O)C(=O)C(c3nc4ccccc4s3)C(=Nc3cccc4c(=O)[nH][nH]c(=O)c34)C2=O)c1` (stereo not drawn), for which the TGI was more than 100 µM.

As for `CCCCCCCCCCCCCCCCCCOCC(COCCOCC[N+]1(CCCCCC(=O)[O-])CCCC1)Oc1ncccn1` (stereo not drawn), the TGI turned out to be 17.4 µM.

For the compound `CCOc1ccc(Nc2c3ccccc3nc3ccccc23)cc1`, the GI50 is 0.816 µM; the TGI was 2.78 µM and 0.65 µM.

Regarding `CC(C)(C)NCC(COc1ccc([N+](=O)[O-])cc1)OP(c1ccccc1)c1ccccc1` (stereo not drawn), the TGI is more than 100 µM.

Consider `CCNCCNc1cc(-c2ccc(C#N)cc2)c(C#N)c2nc3ccccc3n12`, for which the GI50 is 6.04 µM and the TGI came to 20.8 µM.

For the origin of these results see PubChem BioAssay (NCI).
